From patent publication US20180267043A1, “USE OF BIOMARKERS FOR PREDICTING CLINICAL SENSITIVITY TO CANCER TREATMENT” (CELGENE CORPORATION, priority 2014, published 2018) come the findings set out here.

In assay [1] the test system is Acute Myelogenous Leukemia (AML3) cell line. Briefly: CellTiter-Glo cell viability assay after GSPT1 knockdown, AML3. Type of assay: cell-based, human. On the procedure:
The effect of depletion of GSPT1 on the anti-proliferative effect of Compound C was determined in human Acute Myelogenous Leukemia (AML3) cell line. Cells were infected with lentiviral vectors expressing control shRNA, shGSPT1-1 or shGSPT1-3 for 7 days and then treated with DMSO, Compound C in a titration from 0.0001 μM to 1 μM. Two days after treatment, cell proliferation was measured by CellTiter-Glo cell viability assay.
A general note: In ATP-based viability assays light output follows the ATP content of the culture.

The target of the next assay is T1, FLAG-HA tagged CRBN (Homo sapiens, UniProt Q96SW2).
T1 construct: HA; expressed in transfected cells
The assay can be described thus: Anti-FLAG immunoprecipitation of FLAG-HA CRBN from 293 HEK lysate, mass spectrometry. The assay is classed as binding. The following applies: 1 μM, whole cell lysate of 293 HEK cells, vs DMSO. On the procedure: Whole cell lysate of 293 HEK cells stably expressing FLAG-HA tagged CRBN was treated with 1 μM Compound C or DMSO vehicle control. Proteins associated with FLAG-HA CRBN were immunoprecipitated with anti-FLAG affinity gel, separated on SDS-PAGE, silver-stained, and analyzed by mass spectrometry. […] Arrows point to the expected positions of DDB1, GSPT1, PABP1, and CRBN.

Assay [2] has as its target T2, mouse CRBN isoform 2 (IKZF1/3, GSPT1/2 as substrates) (Mus musculus, UniProt Q8C7D2, V380E).
T2 construct: expressed in transfected cells; host or cells: CRBN-/- cells (elsewhere: 293FT, CRISPR)
Briefly: Substrate degradation in CRBN−/− cells expressing mouse CRBN isoform 2 or mutants. The conditions noted are these: mouse CRBN isoform 2 V380E; 1 μM Compound C. The assay is classed as cell-based. An excerpt:
(§1) To test this hypothesis, specific mutations in the compound-binding domain of mouse CRBN isoform2 were generated, such as V380E and I391V. Wild type mouse CRBN isoform 2 or each mutant was introduced to CRBN−/− cells. […] Thus, in mouse CRBN isoform 2, V380E and I391V mutations are sufficient to trigger the degradation of IKZF1/3 and GSPT1/2, respectively.

For assay [3], the target named is T3, mouse CRBN isoform 2 (IKZF1/3, GSPT1/2 as substrates) (Mus musculus, UniProt Q8C7D2, I391V).
T3 construct: expressed in transfected cells; host or cells: CRBN-/- cells (elsewhere: 293FT, CRISPR)
The assay is described as above. The assay is classed as cell-based. The conditions noted are these: mouse CRBN isoform 2 I391V; 10 μM lenalidomide or 1 μM Compound C.
Description: as §1

Another assay deals with PERK/EIF2a/ATF4 pathway. Briefly: mRNA expression of PERK/EIF2a/ATF4 pathway components in DF15 MM cells. Type of assay: cell-based, human. The following applies: 20 nM. The method, then:
Cells were treated with DMSO alone or 20 nM Compound C. After 5 or 10 hours, the expression level of various cellular components along UPR or apoptosis pathways was measured. […] Loss of BIP immunoreactivity indicates an induction of UPR.

In assay [4] the target is T4, GSPT1 and eRF1 (Homo sapiens, UniProt P15170+).
T4 construct: endogenous in cells; host or cells: 293FT HEK cells
The assay can be described thus: Immunoblotting of GSPT1 and eRF1 in 293FT HEK cells. The assay is classed as cell-based. On the procedure:
(§2) CRBN+/+(293FT parental) cells were treated in parallel with CRBN−/− (CRISPR) cells, CRBN−/− cells expressing CRBN isoform 2, and CRBN−/− cells expressing CRBN isoform 2 with a W385A mutation.

Assay [5] deals with GSPT1 and eRF1. The description is as above. Type of assay: cell-based, human. The conditions noted are these: CRBN−/− cells with CRBNiso2 or CRBNiso2 W385A mutant. The method, then: as §2
In assay [6] the test system is GSPT1/eRF3a, GSPT2/eRF3b, and HBS1L/eRF3c. Briefly: Immunoblotting of CRBN/Compound C substrates in 293 HEK cells. The assay is classed as cell-based, human. The conditions noted are these: 8 hours. The method, then: Immunblotting analysis was performed to confirm GSPT1/eRF3a, GSPT2/eRF3b, and HBS1L/eRF3c as authentic substrates of the CRBN/Compound C complex. 293 HEK cells transiently transfected with HA-tagged HBS1L or FLAG-tagged GSPT2 were treated with Compound at the indicated concentrations for 8 hours.

The subject of another assay is DF15. Briefly: CellTiter-Glo cell viability assay after GSPT1 knockdown, DF15. The assay is classed as cell-based, human. The following applies: DF15 expressing shGSPT1-1 or shGSPT1-3 vs parental or control shRNA, 0.01 nM to 0.1 μM, day 9. On the procedure:
The effect of depletion of GSPT1 on the anti-proliferative effect of Compound C was determined in human multiple myeloma (MM) cell lines DF15 and RPMI-8226. Treatment compounds were titrated from 0.01 nM to 0.1 μM. Cell proliferation was measured by the CellTiter-Glo cell viability assay (RLU-Relative Luminescent Unit) at day 9 after GSPT1 knockdown by shGSPT1-1 or shGSPT1-3.

Another assay has as its system PERK pathway of UPR. The assay can be described thus: RNA level of PERK pathway components in 293FT HEK cells. The assay is classed as cell-based, human. The following applies: parental and control shRNA cells, 1 nM or 10 nM, 24 hours. The method, then:
The mechanism of Compound C-induced Unfolded Protein Response (UPR) was studied in 293FT HEK cells. Parental cells, CRBN−/− cells, cells expressing control shRNA, or cells expressing GSPT1-specific shRNA were treated with DMSO, 1 nM, or 10 nM Compound C. The RNA level of variant cellular components along the PERK pathway of UPR was measured and normalized with GAPDH at 24 hours after treatment.

T1 sequence (Q96SW2 whole entry): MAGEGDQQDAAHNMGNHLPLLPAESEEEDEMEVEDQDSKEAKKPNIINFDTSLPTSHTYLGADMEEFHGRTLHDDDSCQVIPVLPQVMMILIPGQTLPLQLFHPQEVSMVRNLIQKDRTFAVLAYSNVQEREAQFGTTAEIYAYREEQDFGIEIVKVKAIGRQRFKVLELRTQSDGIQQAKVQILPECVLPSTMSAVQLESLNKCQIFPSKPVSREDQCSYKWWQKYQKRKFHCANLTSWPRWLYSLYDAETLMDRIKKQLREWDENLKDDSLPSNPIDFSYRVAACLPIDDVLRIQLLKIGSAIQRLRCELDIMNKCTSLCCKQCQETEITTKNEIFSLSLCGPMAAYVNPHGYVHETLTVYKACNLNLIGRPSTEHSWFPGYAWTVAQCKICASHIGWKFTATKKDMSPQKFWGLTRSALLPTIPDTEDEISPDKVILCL
T2 sequence (Q8C7D2 whole entry V380E, canonical isoform): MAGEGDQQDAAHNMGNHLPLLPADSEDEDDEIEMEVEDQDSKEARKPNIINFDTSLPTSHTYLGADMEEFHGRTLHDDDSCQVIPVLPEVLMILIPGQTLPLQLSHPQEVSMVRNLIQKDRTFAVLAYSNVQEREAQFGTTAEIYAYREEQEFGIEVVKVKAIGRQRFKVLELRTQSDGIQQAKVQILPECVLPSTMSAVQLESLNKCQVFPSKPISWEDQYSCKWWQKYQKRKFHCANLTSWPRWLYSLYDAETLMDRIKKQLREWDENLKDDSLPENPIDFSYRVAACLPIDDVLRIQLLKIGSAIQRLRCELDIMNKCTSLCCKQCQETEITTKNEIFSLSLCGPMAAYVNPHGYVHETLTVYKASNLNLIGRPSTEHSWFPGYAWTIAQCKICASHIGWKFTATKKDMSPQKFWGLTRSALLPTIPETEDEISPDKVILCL
T3 sequence (Q8C7D2 whole entry I391V, canonical isoform): as the sequence (Q8C7D2 whole entry V380E, canonical isoform) above, with E380V, I391V counted along it

Turning to `Cc1ccc(NC(=O)NCc2ccc3c(c2)CN(C2CCC(=O)NC2=O)C3=O)cc1Cl` (stereo not shown) [Compound C, 1-(3-chloro-4-methylphenyl)-3-((2-(2,6-dioxopiperidin-3-yl)-1-oxoisoindolin-5-yl)methyl)urea], the Anti-proliferative effect entry in assay [1] (AML3 (FIG. 12A)) is listed as “exhibited anti-proliferative effect”; in assay [1] (AML3 expressing shGSPT1-1 or shGSPT1-3 vs parental or control shRNA, 0.0001 μM to 1 μM, two days) it was “increased anti-proliferative effect”; in the assay with DF15 it was “increased anti-proliferative effect”. Also, the “Proteins associated with FLAG-HA CRBN identified as CAPs” value at FLAG-HA tagged CRBN is “PABP1, GSPT1/eRF3a, GSPT2/eRF3b, and HBS1L/eRF3c were identified as CAPs only when CRBN was bound with Compound C”. Also, the “Degradation of GSPT1/2” value in assay [2] is on record as “restores Compound C-induced degradation of GSPT1/2”. Moreover, the “Degradation of IKZF1/3” value in [3] is “restores both lenalidomide- and Compound C-induced degradation of IKZF1/3”. The “Expression of ATF4, ATF3, DDIT3, PPP1R15A, and GADD45A (FIG. 16C)” value in the assay with PERK/EIF2a/ATF4 pathway is “Compound C-induced expression of ATF4, ATF3, DDIT3, PPP1R15A, and GADD45A”. The “Degradation of GSPT1 and eRF1” value is “induces degradation of GSPT1 and eRF1 in CRBN+/+ cells” on GSPT1 and eRF1 [4] (CRBN+/+ (293FT parental) cells); “reduces this degradation effect” at GSPT1 and eRF1 [4] (CRBN+/+ cells with overexpression of GSPT1); “restores Compound C-induced degradation of GSPT1 and eRF1” in the assay on GSPT1 and eRF1 [5]. Moreover, the “Binding partners of CRBN induced by compound binding” value in assay [6] is “GSPT1/eRF3a, GSPT2/eRF3b, and HBS1L/eRF3c are binding partners of CRBN induced by Compound C binding”. In assay [6] (increased concentration), the “Degradation of GSPT1/eRF3a, GSPT2/eRF3b, and HBS1L/eRF3c” value is on record as “induces degradation”. In the assay on PERK pathway of UPR, the “RNA level of ATF4, ATF3, DDIT3, PPP1R15A, and GADD45A normalized with GAPDH” value is “induces expression of ATF4, ATF3, DDIT3, PPP1R15A, and GADD45A”.
